Test results as given in patent publication US20140171431A1, “AZOLE HETEROCYCLIC COMPOUND, PREPARATION METHOD, PHARMACEUTICAL COMPOSITION AND USE” (priority 2011, published 2014).
Where two headings read alike, the source gives them in different places.

Key:
Lp-PLA2 in rabbit serum = molecular target: T1, Lp-PLA2 in rabbit serum (Oryctolagus cuniculus, UniProt G1SE06); test: In vitro inhibitory activity towards the enzyme Lp-PLA2 in rabbit serum, [3H]PAF substrate; assay type: biochemical
T1 construct: from tissue; host or cells: rabbit serum
T1 sequence (G1SE06 22-423): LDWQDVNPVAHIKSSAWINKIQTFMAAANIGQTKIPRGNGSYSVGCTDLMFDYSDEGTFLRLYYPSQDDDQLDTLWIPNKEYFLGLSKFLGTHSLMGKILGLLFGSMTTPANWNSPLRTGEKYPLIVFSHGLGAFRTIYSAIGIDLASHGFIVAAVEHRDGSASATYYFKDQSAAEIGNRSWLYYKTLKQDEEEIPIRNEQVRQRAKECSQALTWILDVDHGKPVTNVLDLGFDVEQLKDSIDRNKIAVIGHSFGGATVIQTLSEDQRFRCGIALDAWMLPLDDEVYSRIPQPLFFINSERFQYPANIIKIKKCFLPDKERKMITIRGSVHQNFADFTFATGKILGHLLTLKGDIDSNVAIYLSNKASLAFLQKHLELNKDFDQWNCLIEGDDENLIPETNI
Procedure: (§1) The activities of compounds were measured using [^3H] labeled platelet activating factor ([^3H]PAF, Perkinelmer, Lot NET910) as the substrate. The reaction was carried out in a system containing 50 mmol/L HEPES and 150 mmol/L NaCl (pH 7.4) in a total volume of 200 μl. First, 10 μL rabbit serum and 10 μl DMSO solution of the test compound were added to the system and preincubated for 10 min at 37° C. Then 20 nM [^3H]PAF was added as listed in table 1 to start the reaction and incubated for a further 10 min at 37° C. After that, 600 μl of CHCl3/MeOH (2:1) was added and the resulting mixture was vortex mixed and the reaction was stopped. After settled for a while, the mixture was centrifugated at 12000×g for 15 min. The supernatant was transferred to a new tube and 200 μl of CHCl3 was added. The mixture was mixed by vortexing and then settled or centrifugated for 2 min. A 100 μl portion of the supernatant was then collected for radioactivity intensity measurement.
The inhibition rate was determined by the following equation:
Inhibitory rate (%)=1−(DPMcompound tube−DPMblank tube)/(DPMcontrol tube−DPMblank tube)*100%
(Note: DPM is radioactivity intensity unit.)

Lp-PLA2 in human serum = molecular target: T2, Lp-PLA2 in human serum (Homo sapiens, UniProt Q13093); test: In vitro inhibitory activity towards the enzyme Lp-PLA2 in human serum, [3H]PAF substrate; assay type: biochemical
T2 construct: from tissue
T2 sequence (Q13093 22-441): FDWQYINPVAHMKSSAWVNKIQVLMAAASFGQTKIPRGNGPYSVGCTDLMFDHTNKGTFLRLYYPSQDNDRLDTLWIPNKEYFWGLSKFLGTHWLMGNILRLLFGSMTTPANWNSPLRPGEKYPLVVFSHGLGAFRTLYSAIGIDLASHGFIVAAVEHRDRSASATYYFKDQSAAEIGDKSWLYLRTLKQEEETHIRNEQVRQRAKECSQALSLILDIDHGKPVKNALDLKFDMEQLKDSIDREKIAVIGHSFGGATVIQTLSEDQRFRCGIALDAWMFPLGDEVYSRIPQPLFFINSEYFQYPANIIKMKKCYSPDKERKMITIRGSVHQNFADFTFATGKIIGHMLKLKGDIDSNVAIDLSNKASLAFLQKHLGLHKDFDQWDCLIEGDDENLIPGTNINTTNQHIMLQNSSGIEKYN
Procedure: as §1, with “mmol/l” for “mmol/L”, “human plasma” for “rabbit serum”, “was” for “was vortex”, “with vortex.” for “and the reaction was stopped.”, “added and mixed by vortexing.” for “added.”, “was” for “was mixed by vortexing and then”

[1] = 100 nM, rabbit serum, read-out: inhibition, %
[2] = 10 nM, human serum, read-out: inhibition, %
[3] = 10 nM, read-out: inhibitory rate towards the human serum derived Lp-PLA2 enzyme

Structure (SMILES): CN(Cc1ccc(F)cc1)Cc1cnc(Cn2c(SCc3ccc(F)cc3)nc(=O)c3c2CCC3)n1Cc1ccc(-c2ccc(C(F)(F)F)cc2)cc1 [Example 44]
- inhibition at 0.1 µM (Lp-PLA2 in rabbit serum; [1]): 89.1%
- inhibition at 0.01 µM (Lp-PLA2 in human serum; [2]): 69%
- inhibition at 0.1 µM (Lp-PLA2 in human serum; 100 nM, human serum): 95%

Structure (SMILES): CCN(CC)Cc1cnc(Cn2c(SCc3ccc(F)cc3)nc(=O)c3c2CCC3)n1Cc1ccc(-c2ccc(C(F)(F)F)cc2)cc1 [Example 42, 1-((5-((diethylamino)methyl)-1-((4′-(trifluoromethyl)biphenyl-4-yl)methyl)-1H-imidazol-2-yl)methyl)-2-(4-fluorobenzylthio)-6,7-dihydro-1H-cyclopenta[d]pyrimidin-4(5H)-one]
- inhibition at 0.1 µM (Lp-PLA2 in rabbit serum; [1]): 88.3%
- inhibition at 1 µM (Lp-PLA2 in rabbit serum; rabbit serum): 97.7%
- inhibition at 0.01 µM (Lp-PLA2 in human serum; [2]): 75%
- inhibition at 0.1 µM (Lp-PLA2 in human serum; 100 nM, human serum): 92%

Structure (SMILES): COC(=O)CN(C)Cc1nnc(Cn2c(SCc3ccc(F)cc3)nc(=O)c3c2CCC3)n1Cc1ccc(-c2ccc(C(F)(F)F)cc2)cc1 [Example 62, methyl 2-(((5-((2-(4-fluorobenzylthio)-4-oxo-4,5,6,7-tetrahydro-1H-cyclopenta[d]pyrimidin-1-yl)methyl)-4-((4′-(trifluoromethyl)biphenyl-4-yl)methyl)-4H-1,2,4-triazol-3-yl)methyl)(methyl)amino)acetate]
- inhibition, % (Lp-PLA2 in rabbit serum; 100 nM, rabbit serum, 0.1 µM): 73.8%
- inhibition at 0.1 µM (Lp-PLA2 in rabbit serum; [1]): 81.9%
- inhibition, % (Lp-PLA2 in human serum; 10 nM, human serum, 0.01 µM): 76%
- inhibition at 0.01 µM (Lp-PLA2 in human serum; [2]): 83%
- inhibition at 0.1 µM (Lp-PLA2 in human serum; 100 nM, human serum): 96%
- inhibition, % (Lp-PLA2 in human serum; 100 nM, human serum, 0.1 µM): 94%

Structure (SMILES): Cc1nnc(Cn2c(SCc3ccc(F)cc3)nc(=O)c3c2CCC3)n1Cc1ccc(-c2ccc(C(F)(F)F)cc2)cc1 [Example 64, 2-(4-fluorobenzylthio)-1-((5-methyl-4-((4′-(trifluoromethyl)biphenyl-4-yl)methyl)-4H-1,2,4-triazol-3-yl)methyl)-6,7-dihydro-1H-cyclopenta[d]pyrimidin-4(5H)-one]
- inhibition at 0.1 µM (Lp-PLA2 in rabbit serum; [1]): 78.9%
- inhibition at 0.01 µM (Lp-PLA2 in human serum; [2]): 73%
- inhibition at 0.1 µM (Lp-PLA2 in human serum; 100 nM, human serum): 93%

Structure (SMILES): CN(Cc1nnc(Cn2c(SCc3ccc(F)cc3)nc(=O)c3c2CCC3)n1Cc1ccc(-c2ccc(C(F)(F)F)cc2)cc1)C1CC1 [Example 101, 1-((5-((cyclopropyl(methyl)amino)methyl)-4-((4′-(trifluoromethyl)biphenyl-4-yl)methyl)-4H-1,2,4-triazol-3-yl)methyl)-2-(4-fluorobenzylthio)-6,7-dihydro-1H-cyclopenta[d]pyrimidin-4(5H)-one]
- inhibition at 0.1 µM (Lp-PLA2 in rabbit serum; [1]): 86%
- inhibition at 0.01 µM (Lp-PLA2 in human serum; [2]): 77%
- inhibition at 0.1 µM (Lp-PLA2 in human serum; 100 nM, human serum): 96%

Structure (SMILES): C[N+](C)(Cc1ccc(F)cc1)Cc1cnc(Cn2c(SCc3ccc(F)cc3)nc(=O)c3c2CCC3)n1Cc1ccc(-c2ccc(C(F)(F)F)cc2)cc1 [Example 47, N-(4-fluorobenzyl)-1-(2-((2-(4-fluorobenzylthio)-4-oxo-4,5,6,7-tetrahydro-1H-cyclopenta[d]pyrimidin-1-yl)methyl)-1-((4′-(trifluoromethyl)biphenyl-4-yl)methyl)-1H-imidazol-5-yl)-N,N-dimethylmethanaminium bromide]
- inhibition at 0.1 µM (Lp-PLA2 in rabbit serum; [1]): 96.9%
- inhibition at 0.1 µM (Lp-PLA2 in rabbit serum; 100 nM, read-out: inhibitory rate towards the rabbit serum derived Lp-PLA2 enzyme): > 90%
- inhibition at 1 µM (Lp-PLA2 in rabbit serum; rabbit serum): 98.6%
- inhibition at 0.01 µM (Lp-PLA2 in human serum; [2]): 93%
- inhibition at 0.01 µM (Lp-PLA2 in human serum; [3]): > 80%
- inhibition at 0.1 µM (Lp-PLA2 in human serum; 100 nM, human serum): 99%

Structure (SMILES): O=c1nc(SCc2ccc(F)cc2)n(Cc2ncc(C[N+]3(Cc4ccc(F)cc4)CCCC3)n2Cc2ccc(-c3ccc(C(F)(F)F)cc3)cc2)c2c1CCC2 [Example 49, 1-(4-fluorobenzyl)-1-(2-((2-(4-fluorobenzylthio)-4-oxo-4,5,6,7-tetrahydro-1H-cyclopenta[d]pyrimidin-1-yl)methyl)-1-((4′-(trifluoromethyl)biphenyl-4-yl)methyl)-1H-imidazol-5-yl)methyl)pyrrolidinium bromide]
- inhibition at 0.01 µM (Lp-PLA2 in human serum; [2]): 97%
- inhibition at 0.01 µM (Lp-PLA2 in human serum; [3]): > 80%
- inhibition at 0.1 µM (Lp-PLA2 in human serum; 100 nM, human serum): 98%

Structure (SMILES): CCN(CC)CCn1c(-c2ccc(-c3ccc(C(F)(F)F)cc3)cc2)cnc1Cn1c(SCc2ccc(F)cc2)nc(=O)c2c1CCC2 [Example 38, 1-((1-(2-(diethylamino)ethyl)-5-(4′-(trifluoromethyl)biphenyl-4-yl)-1H-imidazol-2-yl)methyl)-2-(4-fluorobenzylthio)-6,7-dihydro-1H-cyclopenta[d]pyrimidin-4(5H)-one]
- inhibition at 1 µM (Lp-PLA2 in rabbit serum; rabbit serum): 16%
- inhibition at 10 µM (Lp-PLA2 in rabbit serum; rabbit serum): 20.4%

Structure (SMILES): CCCCCCCC1NC(Cn2c(SCc3ccc(F)cc3)nc(=O)c3c2CCC3)=NO1 (centres unmarked) [Example 1, 2-(4-fluorobenzylthio)-1-((5-n-heptyl-4,5-dihydro-1,2,4-oxadiazol-3-yl)methyl)-6,7-dihydro-1H-cyclopenta[d]pyrimidin-4(5H)-one]
- inhibition at 1 µM (Lp-PLA2 in rabbit serum; rabbit serum): 10%
- inhibition at 10 µM (Lp-PLA2 in rabbit serum; rabbit serum): 62.6%

Structure (SMILES): CCn1c(CCCc2ccccc2)nnc1Cn1c(SCc2ccc(F)cc2)nc(=O)c2c1CCC2 [Example 59, 1-((4-ethyl-5-(3-phenylpropyl)-4H-1,2,4-triazol-3-yl)methyl)-2-(4-fluorobenzylthio)-6,7-dihydro-1H-cyclopenta[d]pyrimidin-4(5H)-one]
- inhibition at 10 µM (Lp-PLA2 in rabbit serum; rabbit serum): 9.3%

Structure (SMILES): CCOC(=O)N1CCC(N2C(Cn3c(SCc4cccc(F)c4F)nc(=O)c4c3CCC4)=NOC2c2ccc(-c3ccc(C(F)(F)F)cc3)cc2)CC1 (centres unmarked) [Example 21, ethyl 4-(3-((2-(2,3-difluorobenzylthio)-4-oxo-4,5,6,7-tetrahydro-1H-cyclopenta[d]pyrimidin-1-yl)methyl)-5-(4′-(trifluoromethyl)biphenyl-4-yl)-1,2,4-oxadiazol-4(5H)-yl)piperidine-1-carboxylate]
- inhibition at 10 µM (Lp-PLA2 in rabbit serum; rabbit serum): 51.2%

Structure (SMILES): Cc1ccc(-c2ccc(Cn3ccnc3Cn3cc(Cc4cnn(C)c4)c(=O)nc3SCc3ccc(F)cc3)cc2)cc1 [Example 34, 2-(4-fluorobenzylthio)-5-((1-methyl-1H-pyrazol-4-yl)methyl)-1-((1-((4′-methylbiphenyl-4-yl)methyl)-1H-imidazol-2-yl)methyl)pyrimidin-4(1H)-one]
- inhibition at 1 µM (Lp-PLA2 in rabbit serum; rabbit serum): 14.6%

Structure (SMILES): CCN(CC)CCN1C(Cn2c(SCc3ccc(F)cc3)nc(=O)c3c2CCC3)=NOC1c1ccc(-c2ccc(C(F)(F)F)cc2)cc1 (centres unmarked) [Example 24, 1-((4-(2-(diethylamino)eth-yl)-5-(4′-(trifluorometh-yl)biphenyl-4-yl)-4,5-di-hydro-1,2,4-oxadiazol-3-yl)methyl)-2-(4-fluorobenzyl-thio)-6,7-dihydro-1H-cyclopenta[d]pyrimidin-4(5H)-one]
- inhibition at 1 µM (Lp-PLA2 in rabbit serum; rabbit serum): 16.3%
- inhibition at 10 µM (Lp-PLA2 in rabbit serum; rabbit serum): 78.5%

Structure (SMILES): CCCC/C=C/N1C(Cn2c(SCc3ccc(F)cc3)nc(=O)c3c2CCC3)=NOC1CCCCCCC (centres unmarked) [Example 18, (E)-2-(4-fluorobenzylthio)-1-((5-n-heptyl-4-(n-hex-1-enyl)-4,5-dihydro-1,2,4-ox-adiazol-3-yl)methyl)-6,7-di-hydro-1H-cyclopenta[d]py-rimidin-4(5H)-one]
- inhibition at 1 µM (Lp-PLA2 in rabbit serum; rabbit serum): 7.4%
- inhibition at 10 µM (Lp-PLA2 in rabbit serum; rabbit serum): 41.9%

Structure (SMILES): Cc1cnc(Cn2c(SCc3ccc(F)cc3)nc(=O)c3c2CCC3)n1Cc1ccc(-c2ccc(C(F)(F)F)cc2)cc1 [Example 40, 2-(4-fluorobenzylthio)-1-((5-methyl-1-((4′-(trifluoromethyl)biphenyl-4-yl)methyl)-1H-imidazol-2-yl)methyl)-6,7-dihydro-1H-cyclopenta[d]pyrimidin-4 (5H)-one]
- inhibition at 0.1 µM (Lp-PLA2 in rabbit serum; [1]): 53.1%
- inhibition at 1 µM (Lp-PLA2 in rabbit serum; rabbit serum): 90.7%
